Reference: ChEMBL document CHEMBL5724914, “Linking interpersonal differences in gut microbiota composition and drug biotransformation activity” (2024)

Experiments:
[1] = The drug is tested on Z-025 corresponding to rabbit gut metagenome with ENA study accession number: PRJEB37062 and ENA sample accession number: ERS12561824 for biotransformation under anaerobic condition. The drug concentrations were measured over 9 timepoints collected between 0 and 24 hours of incubation by liquid-chromatography-coupled mass spectrometry (LC–MS); details: 2 µM
[2] = The drug is tested on WLS-027 corresponding to human gut metagenome with ENA study accession number: PRJEB37062 and ENA sample accession number: ERS12561744 for biotransformation under anaerobic condition. The drug concentrations were measured over 9 timepoints collected between 0 and 24 hours of incubation by liquid-chromatography-coupled mass spectrometry (LC–MS); details: 2 µM
[3] = human gut metagenome, 24 h, 2 µM
[4] = The drug is tested on Z-014 corresponding to rat gut metagenome with ENA study accession number: PRJEB37062 and ENA sample accession number: ERS12561814 for biotransformation under anaerobic condition. The drug concentrations were measured over 9 timepoints collected between 0 and 24 hours of incubation by liquid-chromatography-coupled mass spectrometry (LC–MS); details: 2 µM
[5] = human gut metagenome, 24 h, 2 µM; remark: listed apart in the source
[6] = human gut metagenome, 24 h, 2 µM; remark: listed apart in the source
[7] = human gut metagenome, 24 h, 2 µM; remark: listed apart in the source
[8] = The drug is tested on Z-008 corresponding to metagenome with ENA study accession number: PRJEB37062 and ENA sample accession number: ERS12561808 for biotransformation under anaerobic condition. The drug concentrations were measured over 9 timepoints collected between 0 and 24 hours of incubation by liquid-chromatography-coupled mass spectrometry (LC–MS); details: 2 µM
[9] = The drug is tested on WLS-090 corresponding to human gut metagenome with ENA study accession number: PRJEB37062 and ENA sample accession number: ERS12561753 for biotransformation under anaerobic condition. The drug concentrations were measured over 9 timepoints collected between 0 and 24 hours of incubation by liquid-chromatography-coupled mass spectrometry (LC–MS); details: 2 µM
[10] = The drug is tested on WLS-010 corresponding to human gut metagenome with ENA study accession number: PRJEB37062 and ENA sample accession number: ERS12561743 for biotransformation under anaerobic condition. The drug concentrations were measured over 9 timepoints collected between 0 and 24 hours of incubation by liquid-chromatography-coupled mass spectrometry (LC–MS); details: 2 µM
[11] = The drug is tested on Z-013 corresponding to rabbit gut metagenome with ENA study accession number: PRJEB37062 and ENA sample accession number: ERS12561813 for biotransformation under anaerobic condition. The drug concentrations were measured over 9 timepoints collected between 0 and 24 hours of incubation by liquid-chromatography-coupled mass spectrometry (LC–MS); details: 2 µM
[12] = The drug is tested on WLS-069 corresponding to human gut metagenome with ENA study accession number: PRJEB37062 and ENA sample accession number: ERS12561748 for biotransformation under anaerobic condition. The drug concentrations were measured over 9 timepoints collected between 0 and 24 hours of incubation by liquid-chromatography-coupled mass spectrometry (LC–MS); details: 2 µM
[13] = The drug is tested on WLS-007 corresponding to human gut metagenome with ENA study accession number: PRJEB37062 and ENA sample accession number: ERS12561742 for biotransformation under anaerobic condition. The drug concentrations were measured over 9 timepoints collected between 0 and 24 hours of incubation by liquid-chromatography-coupled mass spectrometry (LC–MS); details: 2 µM
[14] = The drug is tested on WLS-370 corresponding to human gut metagenome with ENA study accession number: PRJEB37062 and ENA sample accession number: ERS12561793 for biotransformation under anaerobic condition. The drug concentrations were measured over 9 timepoints collected between 0 and 24 hours of incubation by liquid-chromatography-coupled mass spectrometry (LC–MS); details: 2 µM
[15] = The drug is tested on Z-030 corresponding to mouse gut metagenome with ENA study accession number: PRJEB37062 and ENA sample accession number: ERS12561829 for biotransformation under anaerobic condition. The drug concentrations were measured over 9 timepoints collected between 0 and 24 hours of incubation by liquid-chromatography-coupled mass spectrometry (LC–MS); details: 2 µM
[16] = human gut metagenome, 24 h, 2 µM; remark: listed apart in the source
[17] = human gut metagenome, 24 h, 2 µM; remark: listed apart in the source
[18] = human gut metagenome, 24 h, 2 µM; remark: listed apart in the source
[19] = human gut metagenome, 24 h, 2 µM; remark: listed apart in the source
[20] = The drug is tested on WLS-082 corresponding to human gut metagenome with ENA study accession number: PRJEB37062 and ENA sample accession number: ERS12561751 for biotransformation under anaerobic condition. The drug concentrations were measured over 9 timepoints collected between 0 and 24 hours of incubation by liquid-chromatography-coupled mass spectrometry (LC–MS); details: 2 µM
Note: call rule not given here.

| Compound | Bacterial Biotransformation [1] | Bacterial Biotransformation [2] | Bacterial Biotransformation [3] | Bacterial Biotransformation [4] | Bacterial Biotransformation [5] | Bacterial Biotransformation [6] | Bacterial Biotransformation [7] | Bacterial Biotransformation [8] | Bacterial Biotransformation [9] | Bacterial Biotransformation [10] | Bacterial Biotransformation [11] | Bacterial Biotransformation [12] | Bacterial Biotransformation [13] | Bacterial Biotransformation [14] | Bacterial Biotransformation [15] | Bacterial Biotransformation [16] | Bacterial Biotransformation [17] | Bacterial Biotransformation [18] | Bacterial Biotransformation [19] | Bacterial Biotransformation [20] |
| --- | --- | --- | --- | --- | --- | --- | --- | --- | --- | --- | --- | --- | --- | --- | --- | --- | --- | --- | --- | --- |
| CN1CCC(=C2c3ccccc3CCc3cccnc32)CC1.O=C(O)/C=C\C(=O)O.O=C(O)/C=C\C(=O)O [AZATADINE MALEATE] | Compound NOT metabolized | Compound NOT metabolized | Compound NOT metabolized | Compound NOT metabolized | Compound NOT metabolized | Compound NOT metabolized | Compound NOT metabolized | Compound NOT metabolized | Compound NOT metabolized | Compound NOT metabolized | Compound NOT metabolized | Compound NOT metabolized | Compound NOT metabolized | Compound NOT metabolized | Compound NOT metabolized | Compound NOT metabolized | Compound NOT metabolized | Compound NOT metabolized | Compound NOT metabolized | Compound NOT metabolized |
| CC(=O)OCC(=O)[C@@]1(O)[C@@H](C)C[C@H]2[C@@H]3CCC4=CC(=O)C=C[C@]4(C)[C@@]3(F)[C@@H](O)C[C@@]21C [BETAMETHASONE ACETATE] | Compound metabolized | Compound metabolized | Compound metabolized | Compound NOT metabolized | Compound metabolized | Compound metabolized | Compound metabolized | Compound NOT metabolized | Compound metabolized | Compound metabolized | Compound metabolized | Compound metabolized | Compound metabolized | Compound metabolized | Compound NOT metabolized | Compound metabolized | Compound metabolized | Compound metabolized | Compound metabolized | Compound metabolized |
| CC(C)NCC(O)COc1ccc(CCOCC2CC2)cc1 (stereo not given) [BETAXOLOL] | Compound metabolized | Compound NOT metabolized | Compound metabolized | Compound NOT metabolized | Compound NOT metabolized | Compound NOT metabolized | Compound NOT metabolized | Compound NOT metabolized | Compound metabolized | Compound NOT metabolized | Compound NOT metabolized | Compound NOT metabolized | Compound NOT metabolized | Compound NOT metabolized | Compound NOT metabolized | Compound NOT metabolized | Compound NOT metabolized | Compound NOT metabolized | Compound metabolized | Compound NOT metabolized |
| CC(C)(Oc1ccc(CCNC(=O)c2ccc(Cl)cc2)cc1)C(=O)O [BEZAFIBRATE] | Compound NOT metabolized | Compound metabolized | Compound metabolized | Compound NOT metabolized | Compound metabolized | Compound metabolized | Compound metabolized | Compound NOT metabolized | Compound metabolized | Compound metabolized | Compound metabolized | Compound metabolized | Compound metabolized | Compound metabolized | Compound NOT metabolized | Compound metabolized | Compound metabolized | Compound metabolized | Compound metabolized | Compound metabolized |
| O=C(NCc1ccccc1)OCCO [BURAMATE] | Compound NOT metabolized | Compound NOT metabolized | Compound NOT metabolized | Compound NOT metabolized | Compound NOT metabolized | Compound NOT metabolized | Compound NOT metabolized | Compound NOT metabolized | Compound NOT metabolized | Compound NOT metabolized | Compound NOT metabolized | Compound NOT metabolized | Compound NOT metabolized | Compound NOT metabolized | Compound NOT metabolized | Compound NOT metabolized | Compound NOT metabolized | Compound NOT metabolized | Compound NOT metabolized | Compound NOT metabolized |
